Our source for the Ki values is patent US8084466B2, “Bicyclic heteroaryl-substituted imidazoles as modulators of the histamine H4 receptor” (Janssen Pharmaceutica NV, priority 2007, dated 2011).

T1 sequence (Q9H3N8 whole entry): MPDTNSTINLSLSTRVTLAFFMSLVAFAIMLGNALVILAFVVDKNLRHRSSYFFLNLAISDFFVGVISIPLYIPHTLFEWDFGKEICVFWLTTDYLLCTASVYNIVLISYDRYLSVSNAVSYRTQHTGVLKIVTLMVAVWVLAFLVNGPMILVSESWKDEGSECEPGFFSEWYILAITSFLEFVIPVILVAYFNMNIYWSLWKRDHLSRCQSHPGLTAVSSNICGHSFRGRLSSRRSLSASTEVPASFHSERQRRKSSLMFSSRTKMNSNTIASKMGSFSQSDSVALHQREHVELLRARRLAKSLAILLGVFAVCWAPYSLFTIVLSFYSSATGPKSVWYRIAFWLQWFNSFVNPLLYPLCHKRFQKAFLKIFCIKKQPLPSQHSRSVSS

This experiment has as its target T1, human histamine H4 receptor (Homo sapiens, UniProt Q9H3N8).
T1 construct: expressed in transfected cells; host or cells: SK-N-MC cells or COS7 cells, transient transfection with pH4R; cell membranes
Nature of the experiment: Binding Assay on Recombinant Human Histamine H4 Receptor. The note with it: competition binding with 3H-histamine (5 nM; KD 5 nM), membranes of SK-N-MC or COS7 cells expressing human H4 receptor; average of results; > = highest value tested. On the procedure: Biological Methods: Binding Assay on Recombinant Human Histamine H4 Receptor
SK-N-MC cells or COS7 cells were transiently transfected with pH4R and grown in 150 cm^2 tissue culture dishes. Cells were washed with saline solution, scraped with a cell scraper and collected by centrifugation (1000 rpm, 5 min). Cell membranes were prepared by homogenization of the cell pellet in 20 mM Tris-HCl with a polytron tissue homogenizer for 10 sec at high speed. Homogenate was centrifuged at 1000 rpm for 5 min at 4° C. The supernatant was then collected and centrifuged at 20,000×g for 25 min at 4° C. The final pellet was resuspended in 50 mM Tris-HCl. Cell membranes were incubated with ^3H-histamine (5-70 nM) in the presence or absence of excess histamine (10,000 nM). Incubation occurred at room temperature for […]. Membranes were harvested by rapid filtration over Whatman GF/C filters and washed 4 times with ice-cold 50 mM Tris HCl. Filters were then dried, mixed with scintillant and counted for radioactivity. SK-N-MC or COS7 cells expressing human histamine H4 receptor were used to measure the affinity of binding of other compounds and their ability to displace ^3H-ligand binding by incubating the above-described reaction in the presence of various concentrations of inhibitor or compound to be tested. For competition binding studies using ^3H-histamine, Ki values were calculated, based on an experimentally determined KD value of 5 nM and a ligand concentration of 5 nM, according to Y.-C.
As for `Cc1c(F)ccc2[nH]c(-c3ccc4c(c3)c(Cl)cn4CCCC3CCN(C)CC3)nc12` [Example 88, 2-{3-Chloro-1-[3-(1-methyl-piperidin-4-yl)-propyl]-1H-indol-5-yl}-5-fluoro-4-methyl-1H-benzoimidazole], the Ki was over 10000 nM.
As for `Cc1c(F)ccc2[nH]c(-c3ccc4c(ncn4CCCC4CCN(C)CC4)c3C)nc12` [Example 51, 5-Fluoro-4,4′-dimethyl-1′-[3-(1-methyl-piperidin-4-yl)-propyl]-1H,1′H-[2,5′]bibenzoimidazolyl], the figure is 7 nM.
Then `Cc1cc(C)c2nc(-c3ccc4c(c3)c(C)c(C)n4CCCC3CCN(C)CC3)[nH]c2c1` [Example 14, 2-{2,3-Dimethyl-1-[3-(1-methyl-piperidin-4-yl)-propyl]-1H-indol-5-yl}-4,6-dimethyl-1H-benzoimidazole], with 84 nM; and `Cc1c(-c2nc3c(C)cc(F)cc3[nH]2)ccc2c1CCN2CCCC1CCN(C)CC1` [Example 59, 6-Fluoro-4-methyl-2-{4-methyl-1-[3-(1-methyl-piperidin-4-yl)-propyl]-2,3-dihydro-1H-dihydro-1H-indol-5-yl}-1H-benzoimidazole], with 18 nM; and `Cc1cccc2[nH]c(-c3ccc4c(c3)CCN4CCCC3CCNCC3)nc12` [Example 95, 4-Methyl-2-[1-(3-piperidin-4-yl-propyl)-2,3-dihydro-1H-indol-5-yl]-1H-benzoimidazole], with 390 nM.
`Clc1ccc2[nH]c(-c3ccc4c(c3)CCN4CCCC3CCNCC3)nc2c1` [Example 94, 5-Chloro-2-[1-(3-piperidin-4-yl-propyl)-2,3-dihydro-1H-indol-5-yl]-1H-benzoimidazole]: the Ki stood at 600 nM.
As for `CN1CCN(CCCn2ccc3cc(-c4nc5cc(Cl)ccc5[nH]4)ccc32)CC1` [Example 65, 5-Chloro-2-{1-[3-(4-methyl-piperazin-1-yl)-propyl]-1H-indol-5-yl}-1H-benzoimidazole], the figure is 145 nM; as for `Cc1c(C)n(CCCC2CCNCC2)c2ccc(-c3nc4c(C)c(F)ccc4[nH]3)cc12` [Example 90, 2-[2,3-Dimethyl-1-(3-piperidin-4-yl-propyl)-1H-indol-5-yl]-5-fluoro-4-methyl-1H-benzoimidazole], 2000 nM.
As for `COc1ccc(-c2[nH]c(-c3ccc4c(ncn4CCCC4CCN(C)CC4)c3C)nc2C)cc1` [Example 143, 5-[5-(4-Methoxy-phenyl)-4-methyl-1H-imidazol-2-yl]-4-methyl-1-[3-(1-methyl-piperidin-4-yl)-propyl]-1H-benzoimidazole], the figure is 1 nM; as for `Clc1ccc2[nH]c(-c3cc4ccn(CCCC5CCNCC5)c4cc3Cl)nc2c1` [Example 101, 5-Chloro-2-[6-chloro-1-(3-piperidin-4-yl-propyl)-1H-indol-5-yl]-1H-benzoimidazole], 3330 nM; as for `Cc1c(F)ccc2[nH]c(-c3ccc4c(c3)CCN4CCCC3CCN(C)CC3)nc12` [Example 96, 5-Fluoro-4-methyl-2-{1-[3-(1-methyl-piperidin-4-yl)-propyl]-2,3-dihydro-1H-indol-5-yl}-1H-benzoimidazole], 103 nM.
For the compound `Cc1ccc2[nH]c(-c3cc4ccn(CCCC5CCN(C)CC5)c4cc3Cl)nc2c1C` [Example 103, 2-{6-Chloro-1-[3-(1-methyl-piperidin-4-yl)-propyl]-1H-indol-5-yl}-4,5-dimethyl-1H-benzoimidazole], the Ki came out at 2770 nM.
Take `CN1CCC(CCCCn2ccc3c(-c4nc5cc(C(C)(C)C)ccc5[nH]4)cccc32)CC1` [Example 24, 5-tert-Butyl-2-{1-[4-(1-methyl-piperidin-4-yl)-butyl]-1H-indol-4-yl}-1H-benzoimidazole]: the Ki turned out to be 40 nM.
Then `Cc1c(-c2nc3cc(Cl)ccc3[nH]2)ccc2c1ccn2CCCC1CCN(C)CC1` [Example 10, 5-Chloro-2-{4-methyl-1-[3-(1-methyl-piperidin-4-yl)-propyl]-1H-indol-5-yl}-1H-benzoimidazole], with 19 nM; and `Cc1cccc2[nH]c(-c3ccc4c(c3)CCN4CCCC3CCN(C)CC3)nc12` [Example 98, 4-Methyl-2-{1-[3-(1-methyl-piperidin-4-yl)-propyl]-2,3-dihydro-1H-indol-5-yl}-1H-benzoimidazole], with 157 nM; and `CN1CCC(CCCn2cc(Cl)c3cc(-c4nc5cc(C(C)(C)C)ccc5[nH]4)ccc32)CC1` [Example 28, 5-tert-Butyl-2-{3-chloro-1-[3-(1-methyl-piperidin-4-yl)-propyl]-1H-indol-5-yl}-1H-benzoimidazole], with 349 nM.
Then `Cc1cccc2[nH]c(-c3ccc4c(ncn4CCCC4CCNCC4)c3C)nc12` [Example 111, 4,4′-Dimethyl-1′-(3-piperidin-4-yl-propyl)-1H,1′H-[2,5′]bibenzoimidazolyl], with 478 nM.
Then `FC(F)(F)c1ccc2[nH]c(-c3cccc4c3c(Cl)cn4CCCCC3CCNCC3)nc2c1` [Example 130, 2-[3-Chloro-1-(4-piperidin-4-yl-butyl)-1H-indol-4-yl]-5-trifluoromethyl-1H-benzoimidazole], with over 10000 nM.
In the case of `CN1CCC(CCCCn2ccc3c(-c4nc5cc(Cl)ccc5[nH]4)cccc32)CC1` [Example 68, 5-Chloro-2-{1-[4-(1-methyl-piperidin-4-yl)-butyl]-1H-indol-4-yl}-1H-benzoimidazole], the Ki worked out at 343 nM.
On to `CN1CCC(CCCCn2ccc3c(-c4nc5c(Cl)cccc5[nH]4)cccc32)CC1` [Example 17, 4-Chloro-2-{1-[4-(1-methyl-piperidin-4-yl)-butyl]-1H-indol-4-yl}-1H-benzoimidazole], for which the Ki is 58 nM.
As for `Cc1ccc2[nH]c(-c3ccc4c(c3)ncn4CCCCC3CCN(C)CC3)nc2c1C` [Example 121, 4,5-Dimethyl-1′-[4-(1-methyl-piperidin-4-yl)-butyl]-1H,1′H-[2,5′]bibenzoimidazolyl], the figure is 3000 nM; as for `COC(=O)c1ccc2[nH]c(-c3ccc4c(c3Cl)CCN4CCCC3CCN(C)CC3)nc2c1` [Example 5, 2-{4-Chloro-1-[3-(1-methyl-piperidin-4-yl)-propyl]-2,3-dihydro-1H-indol-5-yl}-1H-benzoimidazole-5-carboxylic acid methyl ester], 76 nM; as for `Fc1ccc2[nH]c(-c3cccc4c3ccn4CCCCC3CCNCC3)nc2c1` [Example 115, 5-Fluoro-2-[1-(4-piperidin-4-yl-butyl)-1H-indol-4-yl]-1H-benzoimidazole], over 10000 nM.
As to `Cc1cc(C)c2nc(-c3ccc4ccn(CCCCC5CCN(C)CC5)c4c3)[nH]c2c1` [Example 25, 4,6-Dimethyl-2-{1-[4-(1-methyl-piperidin-4-yl)-butyl]-1H-indol-6-yl}-1H-benzoimidazole], the Ki came to 350 nM.
As for `Cc1c(F)ccc2[nH]c(-c3ccc4c(c3)CCN4CCCC3CCNCC3)nc12` [Example 93, 5-Fluoro-4-methyl-2-[1-(3-piperidin-4-yl-propyl)-2,3-dihydro-1H-indol-5-yl]-1H-benzoimidazole], the figure is 1100 nM; as for `Cc1ccc2[nH]c(-c3ccc4c(ncn4CCCC4CCN(C)CC4)c3C)nc2c1C` [Example 52, 5,4′-Trimethyl-1′-[3-(1-methyl-piperidin-4-yl)-propyl]-1H,1′H-[2,5′]bibenzoimidazolyl], 33 nM.
As for `COC(=O)c1ccc2nc(-c3cccc4c3c(Cl)cn4CCCCC3CCN(C)CC3)[nH]c2c1` [Example 137, 2-{3-Chloro-1-[4-(1-methyl-piperidin-4-yl)-butyl]-1H-indol-4-yl}-3H-benzoimidazole-5-carboxylic acid methyl ester], the figure is 2880 nM.
Then `Cc1c(C)n(CCCC2CCN(C)CC2)c2ccc(-c3nc4c(C)c(F)ccc4[nH]3)cc12` [Example 15, 2-{2,3-Dimethyl-1-[3-(1-methyl-piperidin-4-yl)-propyl]-1H-indol-5-yl}-5-fluoro-4-methyl-1H-benzoimidazole], with 110 nM.
For `Cc1c(F)ccc2[nH]c(-c3cnc4c(ccn4CCCC4CCN(C)CC4)c3)nc12` [Example 46, 5-Fluoro-4-methyl-2-{1-[3-(1-methyl-piperidin-4-yl)-propyl]-1H-pyrrolo[2,3-b]pyridin-5-yl}-1H-benzoimidazole], the Ki is 12 nM.
Then `Cc1ccc2[nH]c(-c3cccc4c3ccn4CCCCC3CCN(C)CC3)nc2c1C` [Example 78, 4,5-Dimethyl-2-{1-[4-(1-methyl-piperidin-4-yl)-butyl]-1H-indol-4-yl}-1H-benzoimidazole], with 154 nM.
On to `CC(C)(C)c1ccc2[nH]c(-c3ccc4ccn(CCCCC5CCNCC5)c4c3)nc2c1` [Example 109, 5-tert-Butyl-2-[1-(4-piperidin-4-yl-butyl)-1H-indol-6-yl]-1H-benzoimidazole], for which the Ki worked out at 2670 nM.
Regarding `Cc1nc2c(ccc3[nH]c(-c4ccc5c(c4C)CCN5CCCC4CCN(C)CC4)nc32)s1` [Example 60, 2-Methyl-7-{4-methyl-1-[3-(1-methyl-piperidin-4-yl)-propyl]-2,3-dihydro-1H-indol-5-yl}-6H-imidazo[4′,5′:3,4]benzo[2,1-d]thiazole], the Ki stood at 91 nM.
